From patent US20100222302A1, “Novel Antibacterial Compounds” (priority 2005, published 2010) come the findings set out here.

Experiment in all cases: MIC by broth microdilution (NCCLS M7-A4)
What all share (assay type): cell-based

Test [1] deals with M catarrhalis A894. Particulars: cation-adjusted Mueller-Hinton Broth, pH 7.2-7.3. On the procedure:
(§1) These assays have been performed following the description given in “Methods for dilution Antimicrobial Susceptibility Tests for Bacteria that Grow Aerobically, 4th ed.; Approved standard: NCCLS Document M7-A4; National Committee for Clinical Laboratory Standards Villanova, Pa., USA, 1997”. Minimal inhibitory concentrations (MICs; mg/l) were determined in cation-adjusted Mueller-Hinton Broth (BBL) by a microdilution method following NCCLS guidelines (National Committee for Clinical Laboratory Standards. Methods for Dilution Antimicrobial Susceptibility). The pH of the test medium was 7.2-7.3. All the above Examples were tested against several Gram positive and Gram negative bacteria.

For test [2], the system named is S Pneunoniae 49619. The conditions noted are these: cation-adjusted Mueller-Hinton Broth, pH 7.2-7.3. On the procedure:
as §1

In test [3] the test system is S. aureus A798. Particulars: Staphylococcus aureus, cation-adjusted Mueller-Hinton Broth, pH 7.2-7.3. Here is the method:
as §1

The structures appear in SMILES notation. ≈ marks a conversion by molar mass, not a printed value. A value given as a limit tells only on which side of the number the result lay.

In general, MIC refers to the smallest concentration in the dilution series that meets the test's criterion for growth inhibition. Read a high MIC as a less susceptible organism. On to `O=C(O)c1cn(C2CC2)c2c3c(c(F)cc2c1=O)N1C[C@](O)(COc2ccc(N4C[C@H](Cn5ccnn5)OC4=O)cc2F)C[C@H]1CO3` [Example 1, (13S,16S)-1-cyclopropyl-7-fluoro-16-[2-fluoro-4-((5R)-2-oxo-5-[1,2,3]triazol-1-ylmethyl-oxazolidin-3-yl)-phenoxymethyl]-16-hydroxy-4-oxo-1,4,13,15,16,17-hexahydro-12H-11-oxa-1,14-diaza-cyclopenta[a]phenanthrene-3-carboxylic acid], for which the MIC in test [1], in test [2] and in test [3] was ≤ 0.063 µg/mL in each case.

Consider `CC(=O)NC[C@H]1CN(c2ccc(OC[C@]3(O)C[C@H]4COc5c(c(F)cc6c(=O)c(C(=O)O)cn(C7CC7)c56)N4C3)c(F)c2)C(=O)O1` [Example 2, (13S,16S)-16-{4-[(5S)-5-(acetylamino-methyl)-2-oxo-oxazolidin-3-yl]-2-fluoro-phenoxymethyl}-1-cyclopropyl-7-fluoro-16-hydroxy-4-oxo-1,4,13,15,16,17-hexahydro-12H-11-oxa-1,14-diaza-cyclopenta[a]phenanthrene-3-carboxylic acid], for which the MIC in test [1], in test [2] and in test [3] was ≤ 0.063 µg/mL each time.

With `O=C(O)c1cn(C2CC2)c2c3c(c(F)cc2c1=O)N1C[C@](O)(COc2ccc(N4C[C@H](Cn5ccnn5)OC4=O)cc2F)C[C@@H]1CO3` [Example 4, (13R,16S)-1-cyclopropyl-7-fluoro-16-[2-fluoro-4-((5R)-2-oxo-5-[1,2,3]triazol-1-ylmethyl-oxazolidin-3-yl)-phenoxymethyl]-16-hydroxy-4-oxo-1,4,13,15,16,17-hexahydro-12H-11-oxa-1,14-diaza-cyclopenta[a]phenanthrene-3-carboxylic acid], the values for the minimum inhibitory concentration (MIC) in test [1], in test [2] and in test [3] were 0.25 µg/mL (≈ 0.384 µM), ≤ 0.063 µg/mL and ≤ 0.063 µg/mL, respectively.
